Results: patent publication US5129951A, “Aromatic aldehydes and alcohols as potato tuber sprout inhibitors” (priority 1991, dated 1992)

What was measured:
[1] = system: potato; conditions: Aliaga and Feldheim (1985); cited from earlier work
[2] = system: fungi; assay: Fungal growth on tubers exposed to compounds in headspace gas for 7 days (Example 1); type: in vivo; as to Fungal growth: key: -: no fungi visible; +: = some fungi; ++: heavy fungal growth
Excerpt: (control flasks lacked any compounds).

[3] = system: fungi; assay: Fungal growth 14 days after direct application of aromatic compounds (Example 3); type: in vivo; conditions: control +; also: key: -: no fungi visible; +: = some fungi; ++: heavy fungal growth
Experimental: (§2) Because the aromatic aldehydes and alcohols may be applied to the stored potatoes by methods other than as volatiles, direct application of the compounds either as pure chemicals or as emulsions was also studied. Emulsions were prepared as either 1% or 10% (v/v) of each compound in distilled water containing 0.05% (v/v) Tween 80 as an emulsifier (control tubers were treated with Tween 80 only). Tubers were treated by dipping each tuber in the test emulsion for 10 seconds, whereupon excess liquid was allowed to drain off. Pure compounds in liquid phase were applied with an atomizing sprayer, ensuring that the entire tuber surface was coated. Each tuber was sprayed with approximately 0.1-0.2 ml of each compound tested. Six tubers per treatment were used, with two replicates, and all experiments were repeated once.

[4] = system: potato tubers; assay: Sprout inhibition of tubers exposed to compounds in headspace gas for 7 days (Example 1); type: in vivo, Solanum tuberosum L. cv `Norchip`; conditions: 7 days in saturated headspace gas, 25° C.; for % Eyes Sprouted: dark, control 100, LSD (0.05) 12
[5] = system: potato tubers; assay: Tuber sprouting 14 days after direct application of aromatic compounds (Example 3); type: in vivo, Solanum tuberosum L. cv `Norchip`; conditions: for % Eyes Sprouted: 25° C., control 98, LSD (0.05) 14
Experimental: as §2

[6] = system: potato tubers; assay: Tuber texture/quality after exposure to compounds in headspace gas for 7 days (Example 1); conditions: 7 days in saturated headspace gas, 25° C.
[7] = system: potato tubers; assay: Tuber sprouting after removal from exposure to volatilized aromatics for 1, 2, 4, 7 or 10 days (Example 2); type: in vivo, Solanum tuberosum L. cv `Norchip`; conditions: 14 days after removal; for % Eyes Sprouted: 25° C., LSD (0.05) 24
Experimental: (§1) Each treatment consisted of placing the tubers in sealed 9.2 l flasks containing excess levels of the treatment compounds at 25° C. as in Example 1. Three tubers were then removed from each treatment after 1, 2, 4, 7, and 10 days, and placed in flasks containing fresh humidified air (free of any additional volatilized compounds) at 25° C. Control tubers were placed in sealed flasks lacking any added compounds and three were removed after 1 and 10 days. Fourteen days after removal from the sealed flasks containing treatment compounds, all tubers were examined for percentage of eyes sprouted, tuber texture, and fungal growth. Each treatment was replicated once and each experiment was repeated once.

[8] = system: potato tubers; assay: Tuber texture and quality 14 days after direct application of aromatic compounds (Example 3); conditions: for Tuber Texture: control SS
Experimental: as §2

[9] = system: fungi; assay: Fungal growth on tubers after removal from exposure to volatilized aromatics (Example 2); type: in vivo
Experimental: as §1

[10] = Theoretical saturated headspace concentration calculated from known vapor pressures; type: physicochemical; conditions: calculated from known vapor pressures by Ideal Gas Law
Experimental: Because these compounds were difficult to quantitate by gas chromatography at the concentration levels in saturated headspaces, theoretical saturated concentrations were calculated by converting known vapor pressures of each compound at 25° C. to molar concentrations using the Ideal Gas Law, […], where n/V is the molar concentration, P is the partial pressure (atm), R is the Ideal Gas constant (0.0821 l atm/mol ° K.), and T is the temperature (° K.).

[11] = cited from earlier work; for Temperature at Which Vapor Pressure Equals 1 mm Hg: vapor pressure 1 mm Hg
[12] = system: potato tubers; assay: Tuber sprouting after removal from exposure to volatilized aromatics for 1, 2, 4, 7 or 10 days (Example 2); type: in vivo, Solanum tuberosum L. cv `Norchip`; conditions: exposure for 10 days, 75 days after removal
[13] = system: potato tubers; assay: Tuber texture after removal from exposure to volatilized aromatics (Example 2); type: in vivo, Solanum tuberosum L. cv `Norchip`; conditions: 14 days after removal from exposure
Experimental: as §1

[14] = 7 days in saturated headspace gas, 25° C.
[15] = 7 days in saturated headspace gas, 25° C., control ++
[16] = 1 day exposure, 14 days after removal, control +
[17] = 4 days exposure, 14 days after removal
[18] = 7 days exposure, 14 days after removal
[19] = 10 days exposure, 14 days after removal, control +
[20] = 14 days after removal from exposure
[21] = 2 days exposure, 14 days after removal

| Compound | effectiveness of main oil components in inhibiting sprouting, weight loss and rot [1] | effect on fungal growth [2, 14] | Fungal Growth [2, 15] | Fungal Growth ([3]; 1% emulsion (dip)) | Fungal Growth ([3]; 100% (pure, sprayed)) | effect on tuber sprouting [4] | % Eyes Sprouted [4] [%] | % Eyes Sprouted ([5]; 1% emulsion (dip)) [%] | % Eyes Sprouted ([5]; 10% emulsion (dip)) [%] | % Eyes Sprouted ([5]; 100% (pure, sprayed)) [%] | tuber condition [6] | % Eyes Sprouted ([7]; 1 day exposure, control 96) [%] | % Eyes Sprouted ([7]; 2 days exposure) [%] | % Eyes Sprouted ([7]; 4 days exposure) [%] | % Eyes Sprouted ([7]; 7 days exposure) [%] | Tuber Texture ([8]; 10% emulsion (dip)) | Tuber Texture ([8]; 100% (pure, sprayed)) | Concentration of Saturated Headspace at 25° C. [10] [nM] | Temperature at Which Vapor Pressure Equals 1 mm Hg [11] [°C] | Solubility in Water at 25° C. [11] | other results |
| --- | --- | --- | --- | --- | --- | --- | --- | --- | --- | --- | --- | --- | --- | --- | --- | --- | --- | --- | --- | --- | --- |
| CC1=CCC2CC1C2(C)C (stereo not drawn) [α-pinene] | effective |  |  |  |  |  |  |  |  |  |  |  |  |  |  |  |  |  |  |  |  |
| O=CC=Cc1ccccc1 [Cinnamaldehyde] |  | prevented any visible fungal growth | - | - | - | completely inhibited sprouting | 0 | 0 | 0 | 0 | firm and appeared healthy | 62 | 80 | 64 | 24 | S,N | S,N | 1900 | 76.1 | sl. soluble | inhibition of sprouting ([5]; 1% emulsion): completely inhibited sprouting without damaging the potato tubers; % Eyes Sprouted ([7]; 10 days exposure, control 100): 0%; inhibition of tuber sprouting ([7]; exposure for 7 or fewer days): did not completely inhibit sprouting; inhibition of tuber sprouting ([7]; exposure for 10 days): completely inhibited sprouting; tuber condition ([8]; 1% emulsion): remained hard, with no necrosis or surface pitting; Fungal Growth [9, 16]: -; Fungal Growth [9, 17]: -; Fungal Growth [9, 18]: -; Fungal Growth [9, 19]: -; Fungal Growth [9, 20]: a small amount of mycelia was detected in a bruised area; sprouting [12]: remained unsprouted |
| CC1CCC(C(C)C)C(=O)C1 (stereo not shown) [menthone/isomenthone] | effective |  |  |  |  |  |  |  |  |  |  |  |  |  |  |  |  |  |  |  |  |
| C=CCc1ccc(O)c(OC)c1 [Eugenol, reference compound] |  | especially heavy growth | ++ | ++ | - | no significant effect on tuber sprouting | 94 | 32 | 7 | 0 | remained firm |  |  |  |  | SS,N | S,N | 1600 | 78.4 |  |  |
| O=CCCc1ccccc1 [Hydrocinnamaldehyde, 3-phenyl-propanal] |  | prevented any visible fungal growth | - | - | - | completely inhibited sprouting | 0 | 25 | 0 | 0 | firm and appeared healthy | 90 | 79 | 66 | 51 | S | S,N |  |  | sl. soluble | Fungal Growth ([3]; 10% emulsion (dip)): ++; % Eyes Sprouted ([7]; 10 days exposure, control 100): 24%; Fungal Growth [9, 16]: -; Fungal Growth [9, 21]: -; Fungal Growth [9, 17]: -; Fungal Growth [9, 18]: -; Fungal Growth [9, 19]: - |
| CC(C)c1ccc(C=O)cc1 [Cuminaldehyde] |  | prevented any visible fungal growth | - | - | - | completely inhibited sprouting | 0 | 5 | 43 | 0 | firm and appeared healthy | 63 | 68 | 49 | 8 | SS,N | SS,N | 6400 | 58.0 | insoluble | % Eyes Sprouted ([7]; 10 days exposure, control 100): 0%; inhibition of tuber sprouting ([7]; exposure for 7 or fewer days): did not completely inhibit sprouting; inhibition of tuber sprouting ([7]; exposure for 10 days): completely inhibited sprouting; Fungal Growth [9, 16]: -; Fungal Growth [9, 21]: -; Fungal Growth [9, 17]: -; Fungal Growth [9, 18]: -; Fungal Growth [9, 19]: -; sprouting [12]: remained unsprouted |
| C=C(C)C1CC=C(C)CC1 (stereo not shown) [limonene] | effective |  |  |  |  |  |  |  |  |  |  |  |  |  |  |  |  |  |  |  |  |
| Oc1ccccc1 [Phenol] |  |  |  |  |  | completely inhibited sprouting | 0 |  |  |  | blackened, soft to the touch, and displayed evident tissue necrosis |  |  |  |  |  |  | 21000 | 40.1 |  | Fungal Growth ([2]; in vivo): -; effect on fungal growth ([2]; in vivo): prevented any visible fungal growth; Tuber Texture ([6]; control SS): S,N |
| O=Cc1ccccc1O [Salicylaldehyde] |  | prevented any visible fungal growth | - | ++ | - | completely inhibited sprouting | 0 | 0 | 0 | 0 | firm and appeared healthy | 0 | 0 | 0 | 0 | S,N | S,N | 36000 |  |  | Fungal Growth ([3]; 10% emulsion (dip)): -; % Eyes Sprouted ([7]; 10 days exposure, control 100): 0%; inhibition of tuber sprouting ([7]; after 1 or more days of treatment): completely inhibited tuber sprouting; tuber firmness [13]: firm; Tuber Texture ([8]; 1% emulsion (dip)): S,N; Fungal Growth [9, 16]: -; Fungal Growth [9, 21]: -; Fungal Growth [9, 17]: -; Fungal Growth [9, 18]: -; Fungal Growth [9, 19]: -; Fungal Growth [9, 20]: lacked visible fungal growth; sprouting [12]: remained unsprouted |
| COC(=O)C=Cc1ccccc1 [Methyl cinnamate] |  | suppressed fungal growth | - |  |  | suppressed sprouting to some degree | 16 |  |  |  |  |  |  |  |  |  |  | 1600 | 77.4 | insoluble |  |
| C=C1CCC2CC1C2(C)C (stereo not drawn) [β-pinene] | effective |  |  |  |  |  |  |  |  |  |  |  |  |  |  |  |  |  |  |  |  |
| CCOC(=O)C=Cc1ccccc1 [Ethyl cinnamate] |  |  | + |  |  | suppressed sprouting to some degree | 64 |  |  |  |  |  |  |  |  |  |  | 700 | 87.6 | insoluble |  |
| CC(C)=C1CC[C@@H](C)CC1=O [pulegone] | effective |  |  |  |  |  |  |  |  |  |  |  |  |  |  |  |  |  |  |  |  |
